Cytotoxicity data for 39 molecules are collected here from ChEMBL document CHEMBL3507680, “University of Dundee, Gates Library screen for HepG2 cell viability”.

The nature of the series: Human HepG2 cell viability assay in 384 well format. It is filed as toxicity, cell-based. More on the design: dose 125 nL, time 70.5 hour; cytotoxicity at 70.5 h: concentration not given beside the values. To be noted: HepG2 cells, read-out: Inhibition.
Regarding `CNC(=O)c1cn2cc(-c3ccc(F)cc3)n(CC=C(C)C)c(=O)c2n1`, the cytotoxicity at 70.5 h is 19.4%. On to `Cc1n[nH]c(C2CN(C(=O)COCC(F)(F)F)CCO2)n1` (centres undefined), for which the cytotoxicity at 70.5 h is -5.9%. Turning to `O=C(NCC1(O)CCOC1)NCC1(c2ccccc2Cl)CCC1` (centres undefined), the cytotoxicity at 70.5 h worked out at 0.471%. Turning to `CNCc1cn(CC2CCN(CC(C)(C)CN3CCCC3)CC2)nn1`, the cytotoxicity at 70.5 h was -13.6%. As to `CCc1nc(C(=O)N2CCN(C)c3ccccc32)c[nH]1`, the cytotoxicity at 70.5 h was -9.6%. `COc1ccc(-c2ccoc2)cc1CNC1CCCC1`: the cytotoxicity at 70.5 h is 10.7%. `CC(C)(C#N)c1ccc(NS(=O)(=O)CC2CCCCO2)cc1` (centres undefined): the cytotoxicity at 70.5 h was -0.0974%.

Consider `O=C(NCc1ccccc1)N1CCC2(CC(=O)N(c3ccsc3)C2)C1` (centres undefined), for which the cytotoxicity at 70.5 h is -2.89%. `CCOc1ccccc1Nc1nc2c(C)nn(C)c2c(=O)n1C`: the cytotoxicity at 70.5 h was found to be 8.71%. On to `COc1ncc(NCc2ccsc2)cc1C(N)=O`, for which the cytotoxicity at 70.5 h was 3.63%. For the molecule `O=C(CCN1CCOCC1)Nc1cccc(CNCc2cccs2)c1`, the cytotoxicity at 70.5 h is -8.33%.

On to `CN(C)c1nc2c(c(=O)[nH]1)CCN(C(=O)C1CCCO1)C2` (centres undefined), for which the cytotoxicity at 70.5 h was -8.42%. For `O=C(NCCN1CCOCC1)c1ccc(-c2ccccc2)[nH]c1=O`, the cytotoxicity at 70.5 h was -2.93%. In the case of `CC(=O)Nc1c(C)noc1/C=C\c1ccc(S(=O)(=O)N2CCCC2)cc1` it was -3.48%. Then `c1ncn(CC2CCCN(CC3CCCCC3)C2)n1` (centres undefined), with -7.32%; and `O=C1CCNc2ncc(-c3ccc(Cl)cc3)cc2CN1C1CC1`, with -8.11%; and `COc1nn(C)c2c1CCCN(C(=O)c1cccn1C)C2`, with -41.9%. Then `Cn1c(C(=O)N2CCC(C3OCCO3)CC2)c(Cl)c2ccccc21`, with -9.46%. In the case of `COCC(=O)N1CCC2(CCN(Cc3ccc(C)cc3)CC2)CC1`, the cytotoxicity at 70.5 h was -11.5%.

As for `CN(Cc1nnc2n1CCC2)C(=O)CCc1ccc2c(c1)OCO2`, the cytotoxicity at 70.5 h is -7.61%. Regarding `CCc1nc(C2CCCN2C(=O)CCc2cscn2)no1` (centres undefined), the cytotoxicity at 70.5 h is -4.03%. Regarding `CC(O)(CNC(=O)c1cccnc1-n1cccn1)c1cccs1` (centres undefined), the cytotoxicity at 70.5 h is -9.1%. Turning to `Cc1nc(CN(C)Cc2csc(-c3cccs3)n2)co1`, the cytotoxicity at 70.5 h was 6.2%. In the case of `c1cnc2c(c1)cc([C@H]1CCCO1)n2CCN1CCCCC1`, the cytotoxicity at 70.5 h worked out at 20.3%. In the case of `CCc1nc(C)c(C(C)N(C)CCc2ccncc2)s1` (centres undefined) it was 0.87%.

Take `CCn1c(C(=O)N2CCN(CC[S+](C)[O-])CC2)cc2ccccc21` (centres undefined): the cytotoxicity at 70.5 h came to 0.944%. For `CCC(=O)N1CCN(c2nc(C)nc3c(C)nn(C)c23)CC1`, the cytotoxicity at 70.5 h was -6.94%.

With `COCCN(CC(F)F)c1cc(COC)nc2ncnn12`, the cytotoxicity at 70.5 h is -9.69%. In the case of `Cc1nc(-c2ccccc2)ccc1C(=O)N1CCn2c(C)nnc2C1`, the cytotoxicity at 70.5 h was -11.8%. Then `COc1ccc(CNC(=O)Nc2cccnc2N2CCCC2)cc1OC`, with 20.8%; and `CCc1cccc2cc(CNCCOC)c(=O)[nH]c12`, with 21.7%; and `CCNC(=O)Cc1ccc(-c2cccc3c2CCNC3)cc1`, with -17.3%. As to `CN(Cc1cc(C(C)(C)C)n[nH]1)C(=O)c1c[nH]nc1-c1cccc(F)c1`, the cytotoxicity at 70.5 h was -8%.

On to `CN(Cc1cc2n(n1)CCN(C(=O)c1cccnc1)C2)Cc1nccs1`, for which the cytotoxicity at 70.5 h is -12%. With `CC(=O)N1CCCC2(CCN(C(=O)c3ccc(Cl)c(C(F)(F)F)c3)C2)C1` (centres undefined), the cytotoxicity at 70.5 h was -10.6%.

For the molecule `O=C(CSCc1ccncc1)NCc1csc(Br)c1`, the cytotoxicity at 70.5 h was -8.77%. In the case of `CC(C)(Cn1cnc(-c2ccccc2)c1-c1ccco1)N1CCOCC1` it was -10.2%; in that of `Cc1ccccc1S(=O)(=O)N(C)[C@@H]1CC[C@@H](n2ccnc2C)[C@@H]1O`, 53.4%. For `Cc1nc(C2CCCN(C(=O)c3ccnc(N(C)C)c3)C2)no1` (centres undefined), the cytotoxicity at 70.5 h was -3.61%.
